Results on 22 compounds are retold here after patent US20080249130A1, “Gut microsomal triglyceride transport protein inhibitors” (Sirtris Pharmaceuticals, Inc., priority 2007, published 2008).

Values joined by “and” are separate entries in the source; they are usually repeats but may differ in a detail not shown here. Equal values may be shown once. Read-outs that look alike come from different tables or passages of the source.

For orientation: IC50 means the concentration at which inhibition is half-maximal. What is called inhibition is the drop in the measured response relative to a control, in per cent.

The target in experiment [1] is T1, MTP (Homo sapiens, UniProt P55157). As to the kind of experiment: In vitro inhibition of MTP, triacylglycerol transfer assay with donor and acceptor liposomes (fluorescence). The class given is biochemical. The procedure:
This assay is commercially available (Cat. #D400, Chylos Inc., New York). Liposomes are pipetted in 5 μl aliquots into the wells of a black fluorescence microtiter plate, followed by addition of 5 μl of water and an incubation of 2-5 min to allow the samples to equilibrate to rt. Next, 5 μl of compound dissolved in DMSO is added to the vesicles. The reaction is initated by the addition of 5 μl MTP, followed by incubation for 30 min at room temperature. […] Time of incubation can be increased to measure low activity in different samples. In such situations, samples are prepared just prior to measuring fluorescence units. For this purpose, isopropanol is added to substrate vesicles about 5 min prior to fluorescence measurement as the fluorescence readings in isopropanol decrease with time.

In experiment [2] the test system is secretion of ApoB by HepG2 cells. As to the kind of experiment: ApoB secretion inhibition assay in HepG2 cells (ApoB ELISA). The class given is cell-based, human. As to conditions: Homo sapiens. In short, it runs like this: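 HepG2 cells were serum-starved for 24 h, then treated for 24 h in DMEM with 1% BSA, 0.3 mM BSA-complexed oleic acid and 0.1% DMSO. Secreted ApoB in conditioned medium was measured by sandwich ELISA (A450). Viability was checked by AlamarBlue fluorescence.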

A further experiment relates to C57BL/6 male mice. As to the kind of experiment: Murine food intake. As to conditions: mice fasted overnight, 100 mg/kg PO, out through 6 hours. It is filed as in vivo. As to the method: C57BL/6 male mice, 18-22 grams (Wilmington, Mass. Charles River Labs), 10 mice per group, are fasted overnight (16 hrs). Mice are dosed PO at indicated dose (10 animals vehicle and 10 animals receive 100 mg/kg of test compound) and a preweighed amount of food is given to animals. Food is weighed every hour up to 6 hrs. Blood is collected at 2 to 6 hours.

In experiment [3] the target is T1, MTP. Particulars: As referenced in Wetterau et al., Science 282: 751, 1998; read-out: gMTP IC50 Triacylglycerol Transfer Assay (Example 3); cited from earlier work.
[4] abbreviates: Table 6, assay of Example 3, read-out: IC50 Enzyme Assay.
[5] abbreviates: HepG2, Table 6, assay of Example 2, read-out: IC50 ApoB Assay.
[6] abbreviates: Tables 2-5, first symbol of the cell, read-out: IC50 Tri-acylglycerol (TAG) Transfer Assay (Example 3).
[7] abbreviates: HepG2, Tables 2-5, second symbol of the cell, read-out: IC50 Apo B Secretion Assay (Example 2).

T1 sequence (P55157 19-894, species assumed): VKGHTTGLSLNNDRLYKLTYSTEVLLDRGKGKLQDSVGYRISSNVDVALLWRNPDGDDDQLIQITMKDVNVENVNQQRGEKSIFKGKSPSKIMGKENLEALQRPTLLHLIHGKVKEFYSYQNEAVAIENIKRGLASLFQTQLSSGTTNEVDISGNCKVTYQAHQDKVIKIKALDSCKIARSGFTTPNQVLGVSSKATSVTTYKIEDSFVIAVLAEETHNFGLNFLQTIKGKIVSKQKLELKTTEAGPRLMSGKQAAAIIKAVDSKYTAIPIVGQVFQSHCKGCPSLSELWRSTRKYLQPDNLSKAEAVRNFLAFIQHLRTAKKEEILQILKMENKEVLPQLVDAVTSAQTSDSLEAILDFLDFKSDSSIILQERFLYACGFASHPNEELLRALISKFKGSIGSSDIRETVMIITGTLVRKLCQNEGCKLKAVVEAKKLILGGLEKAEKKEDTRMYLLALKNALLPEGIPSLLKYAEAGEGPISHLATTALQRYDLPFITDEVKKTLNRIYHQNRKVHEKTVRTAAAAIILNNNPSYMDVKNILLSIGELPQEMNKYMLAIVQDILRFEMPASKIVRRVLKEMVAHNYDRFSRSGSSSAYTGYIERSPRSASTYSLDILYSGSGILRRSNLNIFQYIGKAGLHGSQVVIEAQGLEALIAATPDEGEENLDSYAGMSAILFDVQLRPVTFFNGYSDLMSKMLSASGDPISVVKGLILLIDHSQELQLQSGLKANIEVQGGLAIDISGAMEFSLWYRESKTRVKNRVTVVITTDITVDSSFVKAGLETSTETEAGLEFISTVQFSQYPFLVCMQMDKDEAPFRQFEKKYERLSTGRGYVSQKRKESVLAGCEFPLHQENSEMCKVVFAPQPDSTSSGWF
T1 sequence (P07237 18-508 partner, species assumed): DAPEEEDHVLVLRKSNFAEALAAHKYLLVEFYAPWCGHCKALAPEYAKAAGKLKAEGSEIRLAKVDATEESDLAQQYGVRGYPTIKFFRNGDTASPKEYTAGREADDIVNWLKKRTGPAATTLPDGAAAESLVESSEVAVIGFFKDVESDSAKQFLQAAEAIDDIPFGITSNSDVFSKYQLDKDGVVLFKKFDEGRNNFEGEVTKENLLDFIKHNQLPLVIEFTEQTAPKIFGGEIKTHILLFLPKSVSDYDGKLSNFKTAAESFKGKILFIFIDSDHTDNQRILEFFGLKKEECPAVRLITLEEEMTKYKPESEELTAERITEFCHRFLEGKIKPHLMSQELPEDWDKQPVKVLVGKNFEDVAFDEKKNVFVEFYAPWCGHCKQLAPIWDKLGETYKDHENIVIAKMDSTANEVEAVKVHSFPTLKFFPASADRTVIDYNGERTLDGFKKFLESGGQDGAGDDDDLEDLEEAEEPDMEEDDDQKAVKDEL

Consider `CC(C)c1ccc(-c2ccccc2C(=O)Nc2ccc3nc(C(=O)N[C@H](C(=O)N(C)Cc4ccc(F)cc4)c4ccccc4)sc3c2)cc1` [Compound 54, (S)—N-(2-((4-fluorobenzyl)(methyl)amino)-2-oxo-1-phenylethyl)-6-(4′-isopropylbiphenyl-2-ylcarboxamido)benzo[d]thiazole-2-carboxamide], for which the IC50 is 15.3 nM and 11.2 nM on MTP [1] (setting [4]); 6.2 nM in experiment [2] (setting [5]).

Consider `CC(C)c1ccc(-c2ccccc2C(=O)Nc2ccc3nc(C(=O)N[C@H](C(=O)N4CCCC4)c4ccccc4)sc3c2)cc1` [Compound 55, (S)-6-(4′-isopropylbiphenyl-2-ylcarboxamido)-N-(2-oxo-1-phenyl-2-(pyrrolidin-1-yl)ethyl)benzo[d]thiazole-2-carboxamide], for which the IC50 is 8.1 nM and 3.9 nM at MTP [1] (setting [4]); 6.7 nM in experiment [2] (setting [5]).

Turning to `Cc1csc2nc(-c3ccccc3C(=O)Nc3ccc4nc(C(=O)N[C@H](C(=O)N(C)Cc5ccc(F)cc5)c5ccccc5)sc4c3)cn12` [Compound 64, (S)—N-(2-((4-fluorobenzyl)(methyl)amino)-2-oxo-1-phenylethyl)-6-(2-(3-methylimidazo[2,1-b]thiazol-6-yl)benzamido)benzo[d]thiazole-2-carboxamide], the half-maximal inhibitory concentration (IC50) at MTP [1] (setting [4]) is 95.8 nM; in experiment [2] (setting [5]) it was 6.9 nM.

With `CN(Cc1ccc(F)cc1)C(=O)[C@@H](NC(=O)c1nc2ccc(NC(=O)c3ccccc3-c3nc(C(C)(C)C)cs3)cc2s1)c1ccccc1` [Compound 66, (S)-6-(2-(4-tert-butylthiazol-2-yl)benzamido)-N-(2-((4-fluorobenzyl)(methyl)amino)-2-oxo-1-phenylethyl)benzo[d]thiazole-2-carboxamide], the results for the IC50 (at MTP [1] (setting [4]); in experiment [2] (setting [5])) were 4.6 nM and 4 nM, respectively.

For the compound `CC(C)(C)c1ccc(-c2ccccc2C(=O)NC23CCC(C(=O)N[C@H](C(=O)N4CCCC4)c4ccccc4)(CC2)CC3)cc1` [Compound 67, (S)-4-(4′-tert-butylbiphenyl-2-ylcarboxamido)-N-(2-oxo-1-phenyl-2-(pyrrolidin-1-yl)ethyl)bicyclo[2.2.2]octane-1-carboxamide], the IC50 on MTP [1] (setting [4]) worked out at 2.4 nM; in experiment [2] (setting [5]), 1.8 nM.

As for `CN(Cc1ccc(F)cc1)C(=O)[C@@H](NC(=O)C12CCC(NC(=O)c3ccccc3-c3ccc(C(C)(C)C)cc3)(CC1)CC2)c1ccccc1` [Compound 68, (S)-4-(4′-tert-butylbiphenyl-2-ylcarboxamido)-N-(2-((4-fluorobenzyl)(methyl)amino)-2-oxo-1-phenylethyl)bicyclo[2.2.2]octane-1-carboxamide], the IC50 was 9.9 nM on MTP [1] (setting [4]) and 5.6 nM in experiment [2] (setting [5]).

For `CCCN(C)C(=O)[C@@H](NC(=O)C12CCC(CNC(=O)c3cccc(C)c3-c3ccc(C(C)(C)C)cc3)(CC1)CC2)c1ccccc1` [Compound 73], the IC50 was 3.5 nM at MTP [1] (setting [4]) and 11.8 nM in experiment [2] (setting [5]).

In the case of `Cc1cccc(C(=O)NCC23CCC(C(=O)N[C@H](C(=O)N(C)Cc4ccc(F)cc4)c4ccccc4)(CC2)CC3)c1-c1ccc(C(C)(C)C)cc1` [Compound 75], the half-inhibitory concentration (IC50) on MTP [1] (setting [4]) turned out to be 56.2 nM; in experiment [2] (setting [5]), 5.9 nM.

In the case of `COc1cccc(C(=O)Nc2ccc3nc(C(=O)N[C@H](C(=O)N4CCCC4)c4ccccc4)sc3c2)c1-c1ccc(C(C)(C)C)cc1` [Compound 77], the IC50 at MTP [1] (setting [4]) came out at 3.8 nM; in experiment [2] (setting [5]), 1.2 nM.

For the compound `COc1cccc(C(=O)Nc2ccc3nc(C(=O)N[C@H](C(=O)N(C)Cc4ccc(F)cc4)c4ccccc4)sc3c2)c1-c1ccc(C(C)(C)C)cc1` [Compound 78], the IC50 was 20.5 nM and 7.9 nM at MTP [1] (setting [4]); 2.4 nM in experiment [2] (setting [5]).

Regarding `COc1cccc(C(=O)Nc2ccc3nc(C(=O)N[C@H](C(=O)N4CCCC4)c4ccccc4)sc3c2)c1-c1ccc(C(F)(F)F)cc1` [Compound 79], the IC50 at MTP [1] (setting [4]) came out at 3.1 nM; in experiment [2] (setting [5]) it was 2.7 nM.

With `Cc1cccc(C(=O)Nc2nc(-c3ccc(C(=O)N[C@H](C(=O)N4CCCC4)c4ccccc4)cc3)cs2)c1-c1ccc(C(C)(C)C)cc1` [Compound 83], the IC50 on MTP [1] (setting [4]) came out at 10.2 nM; in experiment [2] (setting [5]) it was 13.2 nM.

As to `COc1cccc(C(=O)Nc2ccc3nc(C(=O)N[C@H](C(=O)N4CCCC4)c4ccccc4)sc3c2)c1-c1ccc(C(C)C)cc1` [Compound 84], the IC50 came to 3.6 nM on MTP [1] (setting [4]) and 1.1 nM in experiment [2] (setting [5]).

With `Cc1cccc(C(=O)Nc2ccc3nc(C(=O)N[C@H](C(=O)N4CCCC4)c4ccccc4)sc3c2)c1-c1ccc(C(C)C)cc1` [Compound 85], the IC50 on MTP [1] (setting [4]) stood at 5.1 nM; in experiment [2] (setting [5]), 2.3 nM.

Take `Cc1cccc(C(=O)Nc2ccc3nc(C(=O)N[C@H](C(=O)N(C)Cc4ccc(F)cc4)c4ccccc4)sc3c2)c1-c1ccc(C(C)C)cc1` [Compound 86]: the IC50 is 9.9 nM and 5.2 nM on MTP [1] (setting [4]); 1.5 nM in experiment [2] (setting [5]).

Take `CN(Cc1ccc(F)cc1)C(=O)[C@@H](NC(=O)c1ccc2nc(NC(=O)c3ccccc3C3CCNCC3)ccc2c1)c1ccccc1` [Compound C1]: the IC50 (on MTP [1] (setting [6]); in experiment [2] (setting [7])) was more than 1010 nM each time. Besides, the “drop in food intake compared to control” value in the experiment on C57BL/6 male mice is recorded as approximately 50%.

Turning to `CN(Cc1ccc(F)cc1)C(=O)[C@@H](NC(=O)c1ccc2nc(NC(=O)c3ccccc3C3CCNC3)ccc2c1)c1ccccc1` (stereo partly shown) [Compound C3], the figures for the IC50 (at MTP [1] (setting [6]); in experiment [2] (setting [7])) were 101 to 1000 nM and more than 1010 nM, respectively.

`CN(Cc1ccc(F)cc1)C(=O)[C@@H](NC(=O)c1ccc2nc(NC(=O)c3ccccc3-c3cn4ccsc4n3)ccc2c1)c1ccccc1` [Compound C5]: the IC50 (at MTP [1] (setting [6]); in experiment [2] (setting [7])) was less than 100 nM in each case.

Turning to `O=C1C[C@@H](c2ccc(O)cc2)Oc2cc(O)cc(O)c21` [compound 1, Naringenin, reference compound], at MTP [1] (at 200 μM), the “inhibition in Triacylglycerol Transfer Assay (Example 3)” value is on record as more than 90% inhibitionat 200 μM. For the same compound, the inhibition at 200 µM was more than 90% at MTP [1] (at 200 μM, read-out: inhibition in Triacylglycerol Transfer Assay (Example 3)) and 50% in experiment [2] (at 200 μM, HepG2 cells). Besides, the IC50 in experiment [2] (HepG2, Table 1, HepG2 cells, read-out: gMTP IC50 ApoB Secretion Assay (Example 2)) turned out to be 200000 nM.

On to `O=C(NC1CCN(CCCCC2(C(=O)NCC(F)(F)F)c3ccccc3-c3ccccc32)CC1)c1ccccc1-c1ccc(C(F)(F)F)cc1` [compound 2, N-(2,2,2-trifluoroethyl)-9-(4-(4-(4′-(trifluoromethyl)biphenyl-2-ylcarboxamido)piperidin-1-yl)butyl)-9H-fluorene-9-carboxamide], for which the IC50 at MTP [3] is 0.5 nM.

`CN(Cc1ccc(F)cc1)C(=O)[C@@H](NC(=O)C12CCC(CNC(=O)c3ccccc3-c3ccc(C(C)(C)C)cc3)(CC1)CC2)c1ccccc1` [drawing 120/drawing 118]: the IC50 on MTP [1] (setting [6]) was less than 100 nM; in experiment [2] (setting [7]), 101 to 1000 nM.

In the case of `CC(C)(C)c1ccc(-c2ccccc2C(=O)Nc2ccc3nc(C(=O)N[C@H](C(=O)N4CCCC4)c4ccccc4)sc3c2)cc1` [drawing 126/drawing 123], the IC50 (at MTP [1] (setting [6]); in experiment [2] (setting [7])) was less than 100 nM in each case.
